Here are results for 15 molecules from publication PMC11174489, “In Vitro Activation of Human Adrenergic Receptors and Trace Amine-Associated Receptor 1 by Phenethylamine Analogues Present in Food Supplements” (Nutrients, 2024).

Type in all cases: cell-based
In experiment [1] the target is T1, human adrenergic receptor (ADR) α1A (Homo sapiens, UniProt P35348).
T1 construct: host or cells: rat chem-1 cells
T1 sequence (P35348 1-466): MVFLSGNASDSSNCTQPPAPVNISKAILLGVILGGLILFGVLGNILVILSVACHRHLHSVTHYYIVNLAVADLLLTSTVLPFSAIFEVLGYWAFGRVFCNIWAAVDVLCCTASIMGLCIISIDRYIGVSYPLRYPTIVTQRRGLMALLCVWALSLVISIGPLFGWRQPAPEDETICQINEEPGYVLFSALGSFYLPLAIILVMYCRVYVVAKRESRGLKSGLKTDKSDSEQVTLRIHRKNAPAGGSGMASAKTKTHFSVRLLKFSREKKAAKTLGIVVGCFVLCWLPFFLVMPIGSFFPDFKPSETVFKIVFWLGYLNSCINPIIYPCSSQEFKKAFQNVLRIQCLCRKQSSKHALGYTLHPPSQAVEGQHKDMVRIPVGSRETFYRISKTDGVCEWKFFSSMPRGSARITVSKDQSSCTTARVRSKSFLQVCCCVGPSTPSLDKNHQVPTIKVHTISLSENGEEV
The experiment in a line: ADRα1A activation, Ca2+ influx (Fluo-8) in overexpressing chem-1 cells. The conditions noted are these: for ADRα1A Emax: % of maximal signal obtained by adrenaline, average (95% CI); for EC50: Ca2+ response, chem-1 cells, average (95% confidence interval), 7–9 experiments; for Emax: Chem-1.

Experiment [2] has as its target T2, human adrenergic receptor (ADR) α1D (Homo sapiens, UniProt P25100).
T2 construct: host or cells: rat chem-1 cells
T2 sequence (P25100 1-572): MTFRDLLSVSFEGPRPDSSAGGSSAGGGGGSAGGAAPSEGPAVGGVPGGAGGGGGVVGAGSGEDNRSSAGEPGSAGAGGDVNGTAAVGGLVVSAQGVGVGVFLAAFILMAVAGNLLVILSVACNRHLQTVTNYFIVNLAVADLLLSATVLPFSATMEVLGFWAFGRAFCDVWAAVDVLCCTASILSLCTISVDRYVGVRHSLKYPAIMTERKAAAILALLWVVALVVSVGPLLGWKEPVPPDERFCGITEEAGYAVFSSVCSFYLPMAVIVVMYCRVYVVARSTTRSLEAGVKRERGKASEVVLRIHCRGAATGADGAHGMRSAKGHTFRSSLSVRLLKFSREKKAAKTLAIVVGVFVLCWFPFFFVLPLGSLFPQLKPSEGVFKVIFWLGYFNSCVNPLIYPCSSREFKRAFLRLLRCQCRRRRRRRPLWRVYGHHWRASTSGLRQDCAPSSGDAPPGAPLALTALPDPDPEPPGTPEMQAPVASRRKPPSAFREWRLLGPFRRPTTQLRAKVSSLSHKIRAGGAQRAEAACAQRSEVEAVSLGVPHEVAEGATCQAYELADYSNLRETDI
The experiment can be described thus: ADRα1D activation, Ca2+ influx (Fluo-8) in overexpressing chem-1 cells. The settings on record: for ADRα1D Emax: % of maximal signal obtained by adrenaline, average (95% CI); for EC50: Ca2+ response, chem-1 cells, average (95% confidence interval), 7–9 experiments; for Emax: Chem-1.

In experiment [3] the target is T3, human adrenergic receptor (ADR) α2A (Homo sapiens, UniProt P08913).
T3 construct: host or cells: rat chem-1 cells
T3 sequence (P08913 1-465): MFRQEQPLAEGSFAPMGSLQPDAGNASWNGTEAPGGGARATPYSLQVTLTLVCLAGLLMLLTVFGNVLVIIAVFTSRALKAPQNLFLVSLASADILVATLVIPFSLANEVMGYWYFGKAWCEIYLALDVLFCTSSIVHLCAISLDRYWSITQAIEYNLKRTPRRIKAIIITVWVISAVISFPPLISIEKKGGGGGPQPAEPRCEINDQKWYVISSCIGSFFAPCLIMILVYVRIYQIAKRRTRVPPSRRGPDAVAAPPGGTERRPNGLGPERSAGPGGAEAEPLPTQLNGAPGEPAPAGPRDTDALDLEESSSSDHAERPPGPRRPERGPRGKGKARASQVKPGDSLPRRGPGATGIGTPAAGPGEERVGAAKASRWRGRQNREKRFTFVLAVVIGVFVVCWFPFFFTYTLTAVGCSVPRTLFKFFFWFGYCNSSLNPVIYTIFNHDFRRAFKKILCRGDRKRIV
The experiment can be described thus: ADRα2A activation, Ca2+ influx (Fluo-8) in overexpressing chem-1 cells. The settings on record: for EC50: Ca2+ response, chem-1 cells, average (95% confidence interval), 7–9 experiments; for potency at ADRα2A, times lower compared to adrenaline: relative to the endogenous agonist adrenaline.

Experiment [4] deals with T4, human trace amine-associated receptor 1 (TAAR1) (Homo sapiens, UniProt Q96RJ0).
T4 construct: expressed in transfected cells
T4 sequence (Q96RJ0 1-339): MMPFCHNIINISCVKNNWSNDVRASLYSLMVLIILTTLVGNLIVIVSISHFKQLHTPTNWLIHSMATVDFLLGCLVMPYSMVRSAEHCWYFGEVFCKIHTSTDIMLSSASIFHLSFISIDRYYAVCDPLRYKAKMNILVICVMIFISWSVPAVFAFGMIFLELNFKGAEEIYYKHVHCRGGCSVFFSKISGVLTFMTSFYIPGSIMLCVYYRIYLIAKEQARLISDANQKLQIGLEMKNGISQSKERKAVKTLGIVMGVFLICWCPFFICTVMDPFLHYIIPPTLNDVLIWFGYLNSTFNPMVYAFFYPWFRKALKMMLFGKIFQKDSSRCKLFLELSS
The experiment can be described thus: TAAR1 activation, intracellular cAMP (ELISA) in HEK293T cells stably expressing human TAAR1. The conditions noted are these: for Emax / Emax at 300 µM: HEK-293T; for EC50: cAMP, HEK293T-hTAAR1 cells, 1 h exposure, average (95% confidence interval), 3–5 experiments; for Emax at 300 µM: read-out: TAAR1 effect at 300 µM, at 300 µM, % of the maximal effect obtained by phenethylamine, compounds that showed only an effect at 300 µM. The procedure:
The cells were seeded (90,000–250,000 cells/well) in a 48-well plate two days before the assay. Two hours before the assay, the cells were incubated with the culture medium containing 10% charcoal-stripped foetal bovine serum (Gibco, Grand Island, NY, USA). The assay was performed in Earle’s balanced salt solution (EBSS) (Gibco, Paisley, UK), containing 15 mM HEPES (Gibco, Paisley, UK), 1 mM IBMX and 0.02% ascorbic acid. First, the cells were pre-incubated for 20 min in the supplemented buffer. Subsequently, the cells were exposed to the test compounds for 1 h in an incubator at 37 °C with 5% CO2. After 1 h, the buffer was discarded and the cells were lysed with 3% trichloroacetic acid and incubated at room temperature on a plate shaker for 2 h. Cell lysates were further diluted and cAMP was measured using a cAMP ELISA kit (Cayman Chemical, Ann Arbor, MI, USA), according to the manufacturer’s protocol.
Concentration–response relationships are shown as mean ± SD.

The mark [5] stands for this setting: % of maximal cAMP level obtained by phenethylamine, average (95% CI).

Molecules are shown by their SMILES.

As to `CC(C)NCC(O)c1ccc(O)cc1` (stereo not drawn) [Isopropyloctopamine, isopropyloctopamine], in experiment [1], the “ADRα1A Emax” value is on record as “-”. Also, the EC50 in experiment [1] was over 300 µM; in experiment [2], over 300 µM; in experiment [3] it was over 300 µM; in experiment [4], 1.8 µM. Besides, the “ADRα1D Emax” value in experiment [2] is listed as “-”. Also, the Emax in experiment [4] (setting [5]) came to 40%.
As for `CN(C)CCc1ccccc1` [Dimethylphenethylamine, N,N-dimethylphenethylamine], in experiment [1], the “ADRα1A Emax” value was “-”. Further, the EC50 in experiment [1] is over 300 µM; in experiment [2], 8.4 µM; in experiment [3], over 300 µM; in experiment [4], 21 µM. The Emax in experiment [2] is 7.9%; in experiment [4] (setting [5]) it was 64%.
On to `CNCC(O)c1ccccc1` (stereo not drawn) [Halostachine, halostachine], for which the EC50 in experiment [1] was 8.7 µM; in experiment [2] it was 2.1 µM; in experiment [3], over 300 µM; in experiment [4] it was 74 µM. Further, the Emax in experiment [1] is 59%; in experiment [2], 82%; in experiment [4] (setting [5]), 104%.
Take `CNC(C)C(O)c1ccc(O)cc1` (stereo not drawn) [Methylsynephrine]: the EC50 in experiment [1] is 44 µM; in experiment [2], over 300 µM; in experiment [3], over 300 µM; in experiment [4], over 300 µM. This molecule also had an Emax in experiment [1] of 16%. The “ADRα1D Emax” value in experiment [2] is recorded as “-”. The “TAAR1 Emax” value in experiment [4] (setting [5]) is “-”. For the same molecule, the “activation of TAAR1” value in experiment [4] (concentrations up to 300 µM) is on record as “did not activate”.
As for `CN(C)CCO` [Dimethylaminoethanol, dimethylaminoethanol], in experiment [1], the “ADRα1A Emax” value is on record as “-”. For the same molecule, the EC50 in experiment [1], in experiment [2], in experiment [3] and in experiment [4] was over 300 µM throughout. Besides, the “ADRα1D Emax” value in experiment [2] is listed as “-”. In addition, the Emax at 300 µM in experiment [4] was about 5%.
Regarding `NCCc1ccc(O)cc1` [Tyramine, tyramine], the “ADRα1A Emax” value in experiment [1] was “-”. The 50% effective concentration (EC50) in experiment [1] is over 300 µM; in experiment [2], over 300 µM; in experiment [3], over 300 µM; in experiment [4], 9.5 µM. In addition, the “ADRα1D Emax” value in experiment [2] is “-”. In experiment [4] (setting [5]), this molecule gave an Emax of 77%.
`NCCc1ccccc1` [Phenethylamine, phenethylamine]: the “ADRα1A Emax” value in experiment [1] is “-”. The EC50 in experiment [1] is over 300 µM; in experiment [2], over 300 µM; in experiment [3], over 300 µM; in experiment [4], 8.8 µM. Besides, the “ADRα1D Emax” value in experiment [2] is “-”. For the same molecule, the Emax in experiment [4] (setting [5]) was 97%.
`CNCC(O)c1ccc(O)cc1` (stereo not drawn) [p-Synephrine, p-synephrine]: the EC50 in experiment [1] amounted to 2.4 µM; in experiment [3], 100 µM; in experiment [4] it was 92 µM. For the same molecule, the Emax amounted to 82% in experiment [1]; 80% in experiment [2]; 89% in experiment [3] (Chem-1, % of maximal signal obtained by adrenaline, average (95% CI)); 85% in experiment [4] (setting [5]). In experiment [3], the “potency at ADRα2A, times lower compared to adrenaline” value was over 12000 times.
For the molecule `CC(C)CCCC(C)N` (stereo not drawn), in experiment [1], the “ADRα1A Emax” value is recorded as “-” and the EC50 is over 300 µM. In experiment [2], the “ADRα1D Emax” value is “-” and the EC50 was over 300 µM. In addition, the EC50 in experiment [3] was over 300 µM. In experiment [4], the Emax at 300 µM amounted to 36% and the EC50 was over 300 µM.
As for `CCC(C)CC(C)N` (stereo not drawn) [1,3-Dimethylamylamine, 1,3-dimethylamylamine], the “ADRα1A Emax” value in experiment [1] was “-”. The EC50 in experiment [1], in experiment [2], in experiment [3] and in experiment [4] was over 300 µM each time. The “ADRα1D Emax” value in experiment [2] was “-”. Besides, the Emax at 300 µM in experiment [4] was 52%.
As to `Oc1ccc(CC2NCCc3cc(O)c(O)cc32)cc1` (stereo not drawn) [Higenamine, higenamine], in experiment [1], the “ADRα1A Emax” value is given as “-”. The concentration giving a half-maximal response (EC50) in experiment [1] is over 300 µM; in experiment [2] it was over 300 µM; in experiment [3], over 300 µM; in experiment [4], 0.98 µM. In addition, the “ADRα1D Emax” value in experiment [2] is listed as “-”. This molecule also registered an Emax in experiment [4] (setting [5]) of 93%.
On to `CN(C)CCc1ccc(O)cc1` [Hordenine, hordenine], for which, in experiment [1], the “ADRα1A Emax” value is “-”. In addition, the EC50 in experiment [1] was over 300 µM; in experiment [2] it was 34 µM; in experiment [3], 690 µM; in experiment [4], 47 µM. For the same molecule, the Emax in experiment [2] is 23%; in experiment [4] (setting [5]) it was 82%. Besides, the “ADRα2A Emax” value in experiment [3] (% of maximal signal obtained by adrenaline, average (95% CI)) is reported as 12%. The “potency at ADRα2A, times lower compared to adrenaline” value in experiment [3] is given as over 12000 times.
On to `CC(C)CC(C)N` (stereo not drawn), for which the “ADRα1A Emax” value in experiment [1] was “-”. In addition, the EC50 in experiment [1], in experiment [2], in experiment [3] and in experiment [4] was over 300 µM in each case. In addition, the “ADRα1D Emax” value in experiment [2] is given as “-”.
Turning to `NCC(O)c1ccc(O)cc1` (stereo not drawn) [p-Octopamine, p-octopamine], the EC50 in experiment [1] was 11 µM; in experiment [2] it was 1.2 µM; in experiment [3], over 300 µM; in experiment [4], 46 µM. For the same molecule, the Emax in experiment [1] was found to be 87%; in experiment [2], 100%; in experiment [4] (setting [5]), 85%.
Regarding `CC(CN)c1ccccc1` (stereo not drawn) [β-Methylphenethyl-amine, beta-methylphenethylamine], the “ADRα1A Emax” value in experiment [1] is on record as “-”. Further, the concentration for a half-maximal effect (EC50) was over 300 µM in experiment [1], over 300 µM in experiment [2], over 300 µM in experiment [3] and 2.1 µM in experiment [4]. The “ADRα1D Emax” value in experiment [2] is “-”. In addition, the Emax in experiment [4] (setting [5]) was 77%.
